The compounds below were run against T1, Prostaglandin E2 receptor EP1 subtype (Homo sapiens, UniProt P34995) (assay: Displacement of [3H]PGE2 from human recombinant EP1 receptor expressed in CHO cells).
T1 sequence (P34995 whole entry): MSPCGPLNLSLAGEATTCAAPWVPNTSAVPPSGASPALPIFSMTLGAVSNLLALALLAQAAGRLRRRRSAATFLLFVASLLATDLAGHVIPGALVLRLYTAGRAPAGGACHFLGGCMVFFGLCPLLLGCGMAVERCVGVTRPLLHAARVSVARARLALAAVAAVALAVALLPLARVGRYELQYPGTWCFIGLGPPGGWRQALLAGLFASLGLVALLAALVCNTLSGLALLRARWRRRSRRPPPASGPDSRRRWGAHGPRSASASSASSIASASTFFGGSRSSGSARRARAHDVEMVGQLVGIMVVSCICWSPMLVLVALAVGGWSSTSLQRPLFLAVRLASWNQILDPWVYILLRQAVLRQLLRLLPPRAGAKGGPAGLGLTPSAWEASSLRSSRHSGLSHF
Assay type: cell-based

Row | Structure (SMILES) | IC50
1 | Cc1ccc(-c2cc(Cl)ccc2OCc2ccccc2)n1-c1cccc(C(=O)NCc2cccnc2)c1 | 0.0631 µM
2 | Cc1ccc(-c2cc(Br)ccc2OCc2ccc(F)cc2F)n1-c1cccc(C(O)(C(F)(F)F)C(F)(F)F)c1 | 0.0251 µM
3 | Cc1ccc(-c2cc(Br)ccc2OCc2ccc(F)cc2F)n1-c1cccc(-c2nc3ccccc3[nH]2)c1 | 0.0631 µM
4 | Cc1cc(=O)[nH]c2cc(-n3c(C)ccc3-c3cc(Cl)ccc3OCc3ccccc3)ccc12 | 0.0631 µM
5 | Cc1ccc(-c2cc(Cl)ccc2OCc2ccccc2)n1-c1cccc(S(C)(=O)=O)c1 | 0.126 µM
6 | Cc1ccc(-c2cc(Cl)ccc2OCc2ccccc2)n1-c1ccc(C(=O)NCc2ccccc2)cc1 | 0.0251 µM
7 | Cc1ccc(-c2cc(Br)ccc2OCc2ccc(F)cc2F)n1-c1cccc(-c2cccnc2)c1 | 0.126 µM
8 | Cc1ccc(-c2cc(Cl)ccc2OCc2ccccc2)n1-c1ccc(S(C)(=O)=O)cc1 | 0.02 µM
9 | Cc1ccc(-c2cc(Br)ccc2OCc2ccc(F)cc2F)n1-c1ccc2c(c1)C(=O)NC2=O | 0.158 µM
10 | Cc1ccc(-c2cc(Cl)ccc2OCc2ccccc2)n1-c1cccc(C(=O)NCc2ccccc2)c1 | 0.0251 µM
11 | Cc1ccc(-c2cc(Cl)ccc2OCc2ccccc2)n1-c1ccc(C(=O)NCc2ccncc2)cc1 | 0.0631 µM
12 | Cc1nc(-c2cccc(-n3c(C)ccc3-c3cc(Br)ccc3OCc3ccc(F)cc3F)c2)no1 | 0.2 µM
13 | Cc1nnc(-c2cccc(-n3c(C)ccc3-c3cc(Br)ccc3OCc3ccc(F)cc3F)c2)o1 | 0.0398 µM
14 | Cc1ccc(-c2cc(Cl)ccc2OCc2ccccc2)n1-c1cccc(C(=O)NS(=O)(=O)c2ccccc2)c1 | 0.00251 µM
15 | Cc1ccc(-c2ccccc2OCc2ccc(F)cc2F)n1-c1ccc2nn[nH]c2c1 | 0.631 µM
16 | CNC(=O)c1ccc(-n2c(C)ccc2-c2cc(Br)ccc2OCc2ccc(F)cc2F)cc1 | 0.00398 µM
17 | Cc1ccc(-c2cc(Br)ccc2OCc2ccc(F)cc2F)n1-c1cccc(C(=O)N(C)C)c1 | 0.01 µM
18 | Cc1ccc(-c2cc(Cl)ccc2OCc2ccccc2)n1-c1cccc(S(=O)(=O)NC(=O)c2ccccc2)c1 | 0.0794 µM
19 | Cc1ccc(-c2cc(Cl)ccc2OCc2ccccc2)n1-c1ccc2[nH]ncc2c1 | 0.0398 µM
20 | Cc1ccc(-c2cc(Br)ccc2OCc2ccc(F)cc2F)n1-c1ccc(C(N)=O)cc1 | 0.00794 µM
21 | CC(=O)Nc1cccc(-n2c(C)ccc2-c2cc(Cl)ccc2OCc2ccccc2)c1 | 0.0631 µM
22 | CCN(CC)C(=O)c1ccc(-n2c(C)ccc2-c2cc(Br)ccc2OCc2ccc(F)cc2F)cc1 | 0.0501 µM
23 | Cc1ccc(-c2cc(Cl)ccc2OCc2ccccc2)n1-c1cccc(C(N)=O)c1 | 0.0631 µM
24 | Cc1ccc(-c2cc(Cl)ccc2OCc2ccccc2)n1-c1ccc2nn[nH]c2c1 | 0.0251 µM
25 | Cc1ccc(-c2cc(Br)ccc2OCc2ccc(F)cc2F)n1-c1cccc(-c2ccccn2)c1 | 0.251 µM
26 | Cc1ccc(-c2ccccc2OCc2ccccc2)n1-c1ccc(S(C)(=O)=O)cc1 | 0.501 µM

Row | Structure (SMILES) | IC50
27 | Cc1ccc(-c2cc(Br)ccc2OCc2ccccc2)n1-c1cccc(S(C)(=O)=O)c1 | 0.2 µM
28 | Cc1ccc(-c2cc(Cl)ccc2OCc2ccccc2)n1-c1ccc(-n2cncn2)cc1 | 0.501 µM
29 | Cc1ccc(-c2cc(Cl)ccc2OCc2ccccc2)n1-c1ccc(C(=O)NCc2ccccn2)cc1 | 0.00251 µM
30 | Cc1ccc(-c2cc(Cl)ccc2OCc2ccccc2)n1-c1ccc2cn[nH]c2c1 | 0.0398 µM
31 | Cc1ccc(-c2cc(Br)ccc2OCc2ccc(F)cc2F)n1-c1cccc(C(=O)NS(C)(=O)=O)c1 | 0.00398 µM
32 | Cc1ccc(-c2cc(Br)ccc2OCc2ccc(F)cc2F)n1-c1cccc(C(=O)Nc2ccccc2)c1 | 0.501 µM
33 | Cc1ccc(-c2cc(Cl)ccc2OCc2ccccc2)n1-c1cccc(C(=O)N[C@H](C)c2ccccc2)c1 | 0.0398 µM
34 | Cc1ccc(-c2cc(Br)ccc2OCc2ccc(F)cc2F)n1-c1ccc(C(=O)N(C)C)cc1 | 0.0158 µM
35 | Cc1ccc(-c2cc(Br)ccc2OCc2ccc(F)cc2F)n1-c1ccc(C(=O)NC(C)(C)C)cc1 | 0.0158 µM
36 | Cc1ccc(-c2cc(Br)ccc2OCc2ccc(F)cc2F)n1-c1cccc(-c2ncccn2)c1 | 0.126 µM
37 | Cc1ccc(-c2ccccc2OCc2ccc(F)cc2F)n1-c1cccc(C(N)=O)c1 | 0.501 µM
38 | Cc1ccc(-c2cc(Cl)ccc2OCc2ccccc2)n1-c1cccc(C(=O)NCc2ccncc2)c1 | 0.0631 µM
39 | Cc1ccc(-c2cc(Cl)ccc2OCc2ccccc2)n1-c1ccc(S(=O)(=O)NC(=O)c2ccccc2)cc1 | 0.00794 µM
40 | Cc1ccc(-c2cc(Br)ccc2OCc2ccc(F)cc2F)n1-c1ccc(-c2cnc[nH]2)cc1 | 0.0398 µM
41 | Cc1ccc(-c2cc(Cl)ccc2OCc2ccccc2)n1-c1ccc(S(N)(=O)=O)cc1 | 0.02 µM
42 | Cc1ccc(-c2ccccc2OCc2ccccc2)n1-c1cccc(C(=O)NS(=O)(=O)c2ccccc2)c1 | 0.00251 µM
43 | Cc1ccc(-c2cc(Cl)ccc2OCc2ccccc2)n1-c1ccc(C(=O)NCc2cccnc2)cc1 | 0.0126 µM
44 | CNC(=O)c1cccc(-n2c(C)ccc2-c2cc(Br)ccc2OCc2ccc(F)cc2F)c1 | 0.02 µM
45 | Cc1ccc(-c2cc(Cl)ccc2OCc2ccccc2)n1-c1cccc(C(=O)N[C@@H](C)c2ccccc2)c1 | 0.316 µM
46 | Cc1ccc(-c2cc(Cl)ccc2OCc2ccccc2)n1-c1ccc(C(=O)N[C@H](C)c2ccccc2)cc1 | 0.00158 µM
47 | Cc1noc(C)c1S(=O)(=O)NC(=O)c1cccc(-n2c(C)ccc2-c2ccccc2OCc2ccccc2)c1 | 0.00501 µM
48 | Cc1ccc(-c2cc(Br)ccc2OCc2ccccc2)n1-c1ccc(S(C)(=O)=O)cc1 | 0.0316 µM
49 | Cc1ccc(-c2cc(Cl)ccc2OCc2ccccc2)n1-c1cccc(C(=O)NCc2ccccn2)c1 | 0.0501 µM
50 | Cc1ccc(-c2ccccc2OCc2ccccc2)n1-c1cccc(S(C)(=O)=O)c1 | > 1 µM
51 | Cc1ccc(-c2cc(Cl)ccc2OCc2ccccc2)n1-c1ccc(C(=O)N[C@@H](C)c2ccccc2)cc1 | 0.00501 µM
